Measurements taken from publication PMC12501029, “Discovery of a CNS active GSK3 degrader using orthogonally reactive linker screening” (Nature Communications, 2025).

Experiments:
[1] = test system: GSK3, total β-catenin, phospho-CRMP2; assay: GSK3 and GSK3 substrates immunoblot in differentiated SH-SY5Y cells, 24 h; format: cell-based, human
Method: HEK293 cells purchased from ATCC and MEF cells were kindly gifted by MRC PPU reagents and services at the University of Dundee. HEK293 and MEF cells were maintained in DMEM (high glucose, GlutaMAX; Gibco) containing 10% foetal bovine serum (FBS; Thermo Fisher), 100U ML-1 penicillin-streptomycin (Thermo Fisher). HAP1 wild type and HAP1 Cereblon Knock-out cell line (CRBN-KO, HZGHC003752c001, Horizon) was a gift from the Ciulli Lab. HAP1 cells were cultured in IMDM (Gibco) with the same additives described as above. SH-SY5Y human neuroblastoma cells (ATCC, CRL-2266) maintained in DMEM (high glucose, Gibco) supplemented with same additives as above. For differentiation, 5 × 10^5 cells were seeded into each well of 6 well plates and differentiated into a more neuronal-like phenotype by treating for 5 days with 10 µM retinoic acid (F9665, Sigma), changing the media every day for the first 3 days[39],[40]. […]
HEK293, HAP1, HAP1 CRBN KO and SH-SY5Y cells were plated in either 6 cm plates or 6-well plates at varying densities (0.5–0.7 × 10^6 cells per plate or wells), and MEF cells were plated in 10 cm plates (1–1.2 × 10^6 cells per plate) depending on experimental set up in respective culturing condition as described above. […] Following clearance of lysates, protein concentrations were determined by the BCA assay (Fisher Scientific, 23225) or Bradford assay (Bio-rad). […]

[2] = test system: mouse liver proteome; assay: Whole proteome analysis of liver tissue from PK/PD study; format: in vivo, female Balb/c mice; conditions: 5 mg/kg i.v., 4 h; GSK3α could not be quantified

## Cn1nc(N2CCC(=O)NC2=O)c2ccc(CN3CCN(Cc4ccc(-c5cn(-c6ccc(-c7cn8nccc(C(=O)Nc9cnccc9N9CCOCC9)c8n7)cc6)nn5)nc4)CC3)cc21 [compound 24]
[1]; concurrent with GSK3 degradation
  phospho-CRMP2 level: concurrent reduction in phospho-CRMP2
[1]; highest tested dose
  dose at which β-catenin stabilisation most clear: 100 nM
[2]
  proteome wide specificity in liver: high levels of proteome wide specificity for GSK3β removal
